# From patent US20230058171A1, “NEW ORAL PHARMACEUTICAL COMPOSITION FOR CANCER THERAPY” (BOEHRINGER INGELHEIM INTERNATIONAL GMBH, priority 2021, published 2023)
# Key:
# [1] = Human therapeutic dose prediction
# Experimental: (§1) Preliminary pharmacokinetic (PK) data were used as supportive information for the dose decision. The human therapeutic dose was predicted based on a minimum effective AUC0-168 of 30,700 nM*h (QW), which was determined in a mouse SJSA-1 xenograft experiment. For this, the difference in plasma protein binding between human and mouse was taken into account, which translated to an effective AUC0-168 of 11,350 nM*h for QW dosing in humans. The human therapeutic dose was predicted to be 64 mg (free acid) with QW dosing.
# SJSA-1 xenograft = assay: Mouse SJSA-1 xenograft experiment: minimum effective AUC; assay type: in vivo; conditions: QW
# Experimental: as §1
# [2] = test system: advanced or metastatic solid tumors; assay: Trial 1403-0001 efficacy: tumor response according to RECIST1.1; assay type: in vivo, human; conditions: for Best overall response / days of exposure to the MDM2i of formula I: MDM2 AMPL
# Text: Trial 1403-0001 was a first in human Phase Ia/Ib, open label, multicenter, dose-escalation study of the MDM2-antagonist of formula I in patients with advanced or metastatic solid tumors. The Phase Ia dose escalation part aimed to define the Maximum Tolerated Dose (MTD) and the Recommended Dose for Expansion (RDE) for the MDM2-antagonist of formula I based on safety and tolerability, pharmacokinetics, pharmacodynamics, and preliminary efficacy. The RDE will be further explored in the Phase Ib expansion part of the trial.
# 15 patients in Arm B experienced a stable disease in arm B (representing 60% of all treated patients).
# A treatment with a drug candidate (here the MDM2-antagonist of formula I) leading to a “PARTIAL RESPONSE (PR)” is defined by a ≥30% decrease in the sum of diameters of target lesions, taking as reference the sum of diameters of the target lesions prior to treatment (=baseline sum of diameters) according to the RECIST1.1 criteria (Eisenhauer et al, Eur. J. Canc. (2009), Vol. 45, pp. 228-247).
# A treatment with a drug candidate (here the MDM2-antagonist of formula I) leading to a “PROGRESSIVE DISEASE (PD)” is defined by a ≥20% increase in the sum of diameters of target lesions, taking as reference the smallest sum of diameters of target lesions on study (including the baseline sum of diameters if that is the smallest sum of diameters of target lesions on study) according to the RECIST1.1 criteria (Eisenhauer et al, Eur. J. Canc. (2009), Vol. 45, pp. 228-247).
# A treatment with a drug candidate (here the MDM2-antagonist of formula I) leading to a “STABLE DISEASE (SD)” is defined by neither sufficient shrinkage to qualify for PR nor sufficient increase to qualify for PD, taking as reference the smallest sum of diameters of the target lesions on study (including the baseline sum of diameters if that is the smallest sum of diameters on study) according to the RECIST1.1 criteria (Eisenhauer et al, Eur. J. Canc. (2009), Vol. 45, pp. 228-247).
# [3] = Arm A patient 1392001001, WD LPS, 20 mg D1q3w
# [4] = Arm A patient 1392001006, DDLPS, 50 mg D1q3w
# [5] = Arm A patient 1840003004, DDLPS, 60 mg D1q3w, no prior therapy
# [6] = Arm A patient 1840003006, DDLPS, 50 mg D1q3w
# [7] = Arm A patient 1840003008, DDLPS, 60 mg D1q3w
# [8] = Arm B patient 1392001005, DDLPS, 15/15 mg D1D8q4w
# [9] = Arm B patient 1392001007, DDLPS, 30/30 mg D1D8q4w
# [10] = Arm B patient 1392001009, WD LPS, 60/60 mg D1D8q4w
# [11] = Arm B patient 1840002005, DDLPS, 20/20 mg D1D8q4w, no prior therapy
# [12] = Arm B patient 1840003009, DDLPS, 45/45 mg D1D8q4w
# [13] = Arm B patient 1840003010, DDLPS, 45/45 mg D1D8q4w
# [14] = Arm B patient 1840003011, WD LPS, 30/30 mg D1D8q4w
# [15] = Arm B patient 1840003014, WD LPS, 45/45 mg D1D8q4w
compound,measurement,setting,value
"Cc1c(C(=O)O)ccc2c3n(nc12)[C@@H]1[C@H](C3)N(CC2CC2)[C@@]2(C(=O)Nc3cc(Cl)ccc32)[C@H]1c1cccc(Cl)c1F [MDM2-antagonist of formula I, (2′S,3′S,3a'S,10a'S)-6-chloro-3′-(3-chloro-2-fluorophenyl)-1′-(cyclopropylmethyl)-6′-methyl-2-oxo-1,2,3′,3a′,10′,10a′-hexahydro-1′H-spiro[indole-3,2′-pyrrolo[2′,3′:4,5]pyrrolo[1,2-b]indazole]-7′-carboxylic acid]",Cmax,"[1]; at predicted human therapeutic dose, QW",680 nM
same,predicted human therapeutic dose,"[1]; free acid, QW dosing",64 mg
same,AUC(0-t),"[1]; oral, 64 mg, QW dosing in humans, corrected for plasma protein binding human vs mouse, read-out: effective AUC0-168",11.3 µM·h
same,minimum effective AUC0-168,SJSA-1 xenograft,"30,700 nM*h"
same,Best overall response,[2]; [3],"PR (PR, tumor shrinkage of at least −30%)"
same,days of exposure to the MDM2i of formula I,[2]; [3],778 days
same,Best overall response,[2]; [4],"SD (SD, tumor growth modification between +20% and −30%)"
same,days of exposure to the MDM2i of formula I,[2]; [4],107 days
same,Best overall response,"[2]; Arm A patient 1392001011, WDLPS, 80 mg D1q3w","PR (PR, tumor shrinkage of at least −30%)"
same,days of exposure to the MDM2i of formula I,"[2]; Arm A patient 1392001011, WDLPS, 80 mg D1q3w, ongoing",228 days
same,Best overall response,"[2]; Arm A patient 1840002004, DDLPS, 45 mg D1q3w","SD (SD, tumor growth modification between +20% and −30%)"
same,days of exposure to the MDM2i of formula I,"[2]; Arm A patient 1840002004, DDLPS, 45 mg D1q3w, third line",353 days
same,Best overall response,[2]; [5],"SD (SD, tumor growth modification between +20% and −30%)"
same,days of exposure to the MDM2i of formula I,[2]; [5],342 days
same,Best overall response,[2]; [6],"SD (SD, tumor growth modification between +20% and −30%)"
same,days of exposure to the MDM2i of formula I,[2]; [6],85 days
same,Best overall response,[2]; [7],"SD (SD, tumor growth modification between +20% and −30%)"
same,days of exposure to the MDM2i of formula I,[2]; [7],57 days
same,Best overall response,"[2]; Arm A patient 1840003013, WDLPS, 80 mg D1q3w","SD (SD, tumor growth modification between +20% and −30%)"
same,days of exposure to the MDM2i of formula I,"[2]; Arm A patient 1840003013, WDLPS, 80 mg D1q3w, ongoing",214 days
same,Best overall response,"[2]; Arm A patient 1846002602, DDLPS, 45 mg D1q3w","SD (SD, tumor growth modification between +20% and −30%)"
same,days of exposure to the MDM2i of formula I,"[2]; Arm A patient 1846002602, DDLPS, 45 mg D1q3w, second line",709 days
same,tumor shrinkage,"[2]; Arm A patient with p53-wildtype MDM2-amplified biliary adenocarcinoma, partial response",54%
same,Best overall response,[2]; [8],"SD (SD, tumor growth modification between +20% and −30%)"
same,days of exposure to the MDM2i of formula I,[2]; [8],491 days
same,Best overall response,[2]; [9],"SD (SD, tumor growth modification between +20% and −30%)"
same,days of exposure to the MDM2i of formula I,[2]; [9],218 days
same,Best overall response,[2]; [10],"SD (SD, tumor growth modification between +20% and −30%)"
same,days of exposure to the MDM2i of formula I,[2]; [10],105 days
same,Best overall response,[2]; [11],"SD (SD, tumor growth modification between +20% and −30%)"
same,days of exposure to the MDM2i of formula I,[2]; [11],542 days
same,Best overall response,[2]; [12],"SD (SD, tumor growth modification between +20% and −30%)"
same,days of exposure to the MDM2i of formula I,[2]; [12],274 days
same,Best overall response,[2]; [13],"SD (SD, tumor growth modification between +20% and −30%)"
same,days of exposure to the MDM2i of formula I,[2]; [13],64 days
same,Best overall response,[2]; [14],"SD (SD, tumor growth modification between +20% and −30%)"
same,days of exposure to the MDM2i of formula I,[2]; [14],100 days
same,Best overall response,"[2]; Arm B patient 1840003012, WD LPS, 60/60 mg D1D8q4w","PR (PR, tumor shrinkage of at least −30%)"
same,days of exposure to the MDM2i of formula I,"[2]; Arm B patient 1840003012, WD LPS, 60/60 mg D1D8q4w, ongoing",221 days
same,Best overall response,[2]; [15],"SD (SD, tumor growth modification between +20% and −30%)"
same,days of exposure to the MDM2i of formula I,[2]; [15],127 days
same,tumor shrinkage,"[2]; Arm B patient with p53 wildtype MDM2-amplified pancreatic adenocarcinoma (PAC), partial response",41%
same,tumor shrinkage,"[2]; DDLPS patient, 45 mg, second line therapy, for 709 days",approx. 5%
same,tumor shrinkage,"[2]; DDLPS patient, 45 mg, third line therapy, for 353 days",approx. 10%
same,"Disease control, % of patients",[2]; arm A (29 treated),(75.9) %
same,"Disease control, number of patients",[2]; arm A (29 treated),22
same,"Partial response, number of patients",[2]; arm A (29 treated),3
same,"Progressive disease, % of patients",[2]; arm A (29 treated),(20.7) %
same,"Progressive disease, number of patients",[2]; arm A (29 treated),6
same,"Stable disease, number of patients",[2]; arm A (29 treated),19
same,"Disease control, % of patients",[2]; arm B (25 treated),(68) %
same,"Disease control, number of patients",[2]; arm B (25 treated),17
same,"Partial response, number of patients",[2]; arm B (25 treated),2
same,"Progressive disease, % of patients",[2]; arm B (25 treated),(20) %
same,"Progressive disease, number of patients",[2]; arm B (25 treated),5
same,"Stable disease, number of patients",[2]; arm B (25 treated),15
same,"Disease control, % of patients",[2]; both arms (54 treated),(72) %
same,"Disease control, number of patients",[2]; both arms (54 treated),39
same,"Partial response, number of patients",[2]; both arms (54 treated),5
same,"Progressive disease, % of patients",[2]; both arms (54 treated),(20.3) %
same,"Progressive disease, number of patients",[2]; both arms (54 treated),11
same,"Stable disease, number of patients",[2]; both arms (54 treated),34
same,approximate median PFS,[2]; eleven dedifferentiated liposarcoma (DDLPS) patients,around 10.8 months
same,patients with partial response,[2]; of seven well differentiated liposarcoma (WDLPS) patients,three
same,duration of response,[2]; one patient in Arm A,more than 2 years
